Values belong to the molecule of their own block, whether it stands above or below them. Activity calls are given as the source filed them. No cut-off for these calls is given here.
Tests used:
Type in all cases: nucleic-acid assay
CTG repeat expansion [1] = experiment: Binding affinity to dsDNA CTG/CTG triad (unknown origin) assessed as melting temperature at 50 uM […]
CTG repeat expansion [2] = experiment: Binding affinity to dsDNA CTG/CTG triad (unknown origin) assessed as change in melting temperature by […]
CCG/CGG motif [3] = experiment: Binding affinity to dsDNA CCG/CGG motif (unknown origin) assessed as melting temperature at 50 uM […] (reference value: 44.8 +/-0.5 degreeC)
CGG repeat expansion [4] = experiment: Binding affinity to dsDNA CGG/CGG triad (unknown origin) assessed as increase in band intensity at 50 uM by circular dichroism analysis
CTG repeat expansion [5] = experiment: Binding affinity to dsDNA CTG/CTG motif (unknown origin) assessed as change in enthalpy measured every 2 mins by ITC analysis
CCG repeat expansion [6] = experiment: Binding affinity to dsDNA CCG/CCG motif (unknown origin) assessed as change in melting temperature at 50 uM […]
CGG repeat expansion [7] = experiment: Binding affinity to dsDNA CGG/CGG motif (unknown origin) assessed as change in melting temperature at 50 uM […]
CCG/CGG motif [8] = experiment: Binding affinity to dsDNA CCG/CGG motif (unknown origin) assessed as change in melting temperature at 50 uM […]
CAG repeat expansion [9] = experiment: Binding affinity to dsDNA CAG/CAG triad (unknown origin) assessed as increase in band intensity at 50 uM by circular dichroism analysis
CGG repeat expansion [10] = experiment: Binding affinity to dsDNA CGG/CGG motif (unknown origin) assessed as melting temperature at 50 uM […] (reference value: 28.2 +/-0.3 degreeC)
CAG/CTG motif [11] = experiment: Binding affinity to dsDNA CAG/CTG motif (unknown origin) assessed as melting temperature at 50 uM […] (reference value: 38.5 +/-0.4 degreeC)
CAG repeat expansion [12] = experiment: Binding affinity to dsDNA CAG/CAG motif (unknown origin) assessed as change in melting temperature at 50 uM […]
CTG repeat expansion [13] = experiment: Binding affinity to (CTG)9 repeat DNA (unknown origin) assessed as increase in band intensity at 20 to 60 uM by circular dichroism analysis; details: dose 20-60 µM
CCG repeat expansion [14] = experiment: Binding affinity to dsDNA CCG/CCG triad (unknown origin) assessed as increase in band intensity at 50 uM by circular dichroism analysis
CTG repeat expansion [15] = experiment: Binding affinity to dsDNA CTG/CTG triad (unknown origin) assessed as decrease in imino proton signals by NMR analysis
TTT/ATA motif [16] = experiment: Binding affinity to dsDNA TTT/ATA motif (unknown origin) assessed as change in melting temperature at 50 uM […]
TTT/ATA motif [17] = experiment: Binding affinity to dsDNA TTT/ATA motif (unknown origin) assessed as melting temperature at 50 uM […] (reference value: 16.6 +/-0.2 degreeC)
CGG repeat expansion [18] = experiment: Binding affinity to dsDNA CGG/CGG triad (unknown origin) measured upto 50 mins by ITC analysis
CCG repeat expansion [19] = experiment: Binding affinity to dsDNA CCG/CCG motif (unknown origin) assessed as melting temperature at 50 uM […] (reference value: 21.6 +/-0.2 degreeC)
CTG repeat expansion [20] = experiment: Binding affinity to dsDNA CTG/CTG triad (unknown origin) assessed as increase in band intensity at 50 uM by circular dichroism analysis
CAG repeat expansion [21] = experiment: Binding affinity to dsDNA CAG/CAG motif (unknown origin) assessed as melting temperature at 50 uM […] (reference value: 21.8 +/-0.2 degreeC)
CTG repeat expansion [22] = experiment: Binding affinity to dsDNA CTG/CTG triad (unknown origin) assessed as increase in band intensity by circular dichroism analysis; details: dose 20-60 µM
CTG repeat expansion [23] = experiment: Binding affinity to dsDNA CTG/CTG motif (unknown origin) assessed as gibbs free energy change measured every 2 mins by ITC analysis
CTG repeat expansion [24] = experiment: Binding affinity to dsDNA CTG/CTG motif (unknown origin) assessed as change in entropy measured every 2 mins by ITC analysis
CAG/CTG motif [25] = experiment: Binding affinity to dsDNA CAG/CTG motif (unknown origin) assessed as change in melting temperature at 50 uM […]
CTG repeat expansion [26] = experiment: Binding affinity to dsDNA CTG/CTG motif (unknown origin) assessed as dissociation constant measured every 2 mins by ITC analysis

Tm (CTG repeat expansion [1]): 27.8 °C
ΔTm (CTG repeat expansion [2]): 0 °C
Compound: Cc1ccc2ccc(NC(=O)OCCCNCCCOC(=O)Nc3ccccn3)nc2n1

Tm (CTG repeat expansion [1]): 27.9 °C
ΔTm (CTG repeat expansion [2]): 0.1 °C
Compound: Cc1ccc2ccc(NC(=O)OCCCNCCCOC(=O)Nc3ccc4ccc(C)nc4n3)nc2n1

Tm (CTG repeat expansion [1]): 28 °C
ΔTm (CTG repeat expansion [2]): 0.2 °C
Compound: Cc1ccc2ccc(NC(=O)OCCCN)nc2n1

Tm (CCG/CGG motif [3]): 44.8 °C
Activity (CGG repeat expansion [4]): inactive
deltaH (CTG repeat expansion [5]): -37.8 kcal/mol
ΔTm (CCG repeat expansion [6]): 2.5 °C
ΔTm (CGG repeat expansion [7]): 3.9 °C
ΔTm (CCG/CGG motif [8]): 0 °C
Activity (CAG repeat expansion [9]): inactive
Tm (CGG repeat expansion [10]): 32.1 °C
Tm (CAG/CTG motif [11]): 38.2 °C
ΔTm (CAG repeat expansion [12]): 2.8 °C
Activity (CTG repeat expansion [13]): Active
Tm (CTG repeat expansion [1]): 33.6 °C
Activity (CCG repeat expansion [14]): inactive
Activity (CTG repeat expansion [15]): Active
ΔTm (CTG repeat expansion [2]): 5.8 °C
ΔTm (TTT/ATA motif [16]): 3.5 °C
Tm (TTT/ATA motif [17]): 20.1 °C
Activity (CGG repeat expansion [18]): Active
Tm (CCG repeat expansion [19]): 24.1 °C
Activity (CTG repeat expansion [20]): Active
Tm (CAG repeat expansion [21]): 24.6 °C
Activity (CTG repeat expansion [22]): Dose-dependent-effect
deltaG (CTG repeat expansion [23]): -7.8 kcal/mol
-TdeltaS (CTG repeat expansion [24]): 29.2 kcal/mol
ΔTm (CAG/CTG motif [25]): -0.2 °C
Kd (CTG repeat expansion [26]): 1.9 µM
Compound: Cc1ccc2ccc(NC(=O)OCCCNCCCOC(=O)Nc3cc4ccccc4cn3)nc2n1

Tm (CTG repeat expansion [1]): 28.1 °C
ΔTm (CTG repeat expansion [2]): 0.3 °C
Compound: NCCCOC(=O)Nc1cc2ccccc2cn1

Tm (CTG repeat expansion [1]): 27.7 °C
ΔTm (CTG repeat expansion [2]): -0.1 °C
Compound: Cc1ccc2ccc(NC(=O)OCCCNCCCOC(=O)Nc3ccc4ccccc4n3)nc2n1
